Consider 13 compounds from PubChem BioAssay (NCI).

Among the test systems are SK-MEL-5 melanoma; DMS 114 small cell lung; RXF 393 renal; UACC-257 melanoma; SK-MEL-2 melanoma; OVCAR-5 ovarian; IGROV1 ovarian; SF-539 CNS; DLD-1 colon; A549 NSCLC; 786-0 renal; BT-549 breast; DU-145 prostate; HS 578T breast.
What all share (assay): DTP human tumour cell line panel, 48 h

SMILES strings stand for the structures.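 Each compound was tested at five concentrations against cells in 96-well plates for 48 hours. The concentration for full growth arrest is given as TGI.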

As a reminder, the TGI is the concentration giving total growth inhibition.

Take `O=C(NO)c1coc2ccccc2c1=O`: the TGI in the test with SK-MEL-5 melanoma, with DMS 114 small cell lung, with RXF 393 renal, in the test with UACC-257 melanoma, in the test on SK-MEL-2 melanoma and in the test on OVCAR-5 ovarian was over 100 µM each time. The TGI in the test on IGROV1 ovarian, in the test on SF-539 CNS, with DLD-1 colon and in the test on A549 NSCLC was over 100 µM in each case.

On to `CC1(O)CC2C(CC1SCCO)C2(C)C` (stereo unspecified), for which the TGI with SK-MEL-5 melanoma, in the test on DMS 114 small cell lung, in the test with UACC-257 melanoma, in the test on SK-MEL-2 melanoma, in the test with 786-0 renal and in the test with OVCAR-5 ovarian was over 100 µM each time. For the same compound, the TGI in the test with IGROV1 ovarian, in the test with SF-539 CNS, in the test with DLD-1 colon and in the test on A549 NSCLC was over 100 µM each time.

As to `Cc1c(-c2cc3n(n2)C(c2cccs2)C(C#N)=C(c2ccccc2)N3)c(=O)n(-c2ccccc2)n1C` (stereo unspecified), the TGI in the test on SK-MEL-5 melanoma is over 85.8 µM; in the test with DMS 114 small cell lung, over 100 µM; in the test on RXF 393 renal, over 100 µM; in the test on UACC-257 melanoma, 98.7 µM; with SK-MEL-2 melanoma it was over 100 µM; in the test on OVCAR-5 ovarian, over 100 µM. Moreover, the TGI with IGROV1 ovarian, with SF-539 CNS, in the test on DLD-1 colon and in the test with A549 NSCLC was over 100 µM in each case.

As to `CC(=O)c1ccc(Oc2ccc(/C(C)=N\N=C(N)N)cc2)cc1`, the TGI was 6.98 µM in the test with SK-MEL-5 melanoma; 4.98 µM in the test with DMS 114 small cell lung; 19 µM in the test on UACC-257 melanoma; 6.17 µM in the test on SK-MEL-2 melanoma; 17.4 µM in the test with OVCAR-5 ovarian; 18.2 µM in the test on IGROV1 ovarian. Besides, the TGI was 3.48 µM in the test on SF-539 CNS, 14.3 µM with DLD-1 colon and 14.5 µM in the test on A549 NSCLC.

As for `CC(C)(C)[Si](C)(C)OCCCC#CCO`, the TGI in the test with SK-MEL-5 melanoma, with DMS 114 small cell lung, in the test with RXF 393 renal, with UACC-257 melanoma, in the test on SK-MEL-2 melanoma and with OVCAR-5 ovarian was over 100 µM throughout. Also, the TGI in the test with IGROV1 ovarian, in the test on SF-539 CNS, in the test on DLD-1 colon and with A549 NSCLC was over 100 µM throughout.

With `COC(=O)C(CCC1C=CCC1)N=Cc1ccccc1` (stereo unspecified), the TGI in the test on SK-MEL-5 melanoma, with BT-549 breast, with RXF 393 renal, in the test with UACC-257 melanoma, in the test with SK-MEL-2 melanoma and in the test with DU-145 prostate was over 100 µM in each case. For the same compound, the TGI in the test with 786-0 renal, with OVCAR-5 ovarian, with IGROV1 ovarian, in the test on SF-539 CNS, with A549 NSCLC and in the test with HS 578T breast was over 100 µM throughout.

Consider `NC(=O)CCC(NCc1c2ccccc2[n+]([O-])c2ccccc12)C(=O)O` (stereo unspecified), for which the TGI in the test on SK-MEL-5 melanoma, with DMS 114 small cell lung, in the test on UACC-257 melanoma, with SK-MEL-2 melanoma, with 786-0 renal and in the test with OVCAR-5 ovarian was over 100 µM throughout. Further, the TGI in the test on IGROV1 ovarian, with DLD-1 colon and in the test with A549 NSCLC was over 100 µM in each case.

For the compound `O=C1OC(c2ccc(O)c(Cl)c2)(c2ccc(O)c(Cl)c2)c2ccc(Br)c3cccc1c23` (tested in a mixture with another compound), the TGI in the test on SK-MEL-5 melanoma was determined as 31.3 µM; in the test with BT-549 breast it was 18.6 µM; in the test on RXF 393 renal it was 32.5 µM; in the test on UACC-257 melanoma it was 34.8 µM; with SK-MEL-2 melanoma, 42.1 µM; in the test on DU-145 prostate, 46.8 µM. The TGI with 786-0 renal was 35.8 µM; with OVCAR-5 ovarian, 34.5 µM; in the test with IGROV1 ovarian, 44.5 µM; in the test on SF-539 CNS it was 32.4 µM; in the test on A549 NSCLC, 38.9 µM; in the test on HS 578T breast, over 53.1 µM.

For `CN1CCC2(CC1)C(=O)N(N1CCCCCC1)C(=O)N2c1ccccc1`, the TGI in the test on SK-MEL-5 melanoma, in the test with BT-549 breast, with RXF 393 renal, in the test on UACC-257 melanoma, in the test with SK-MEL-2 melanoma and with DU-145 prostate was over 100 µM in each case. Besides, the TGI in the test with 786-0 renal, with OVCAR-5 ovarian, in the test with IGROV1 ovarian, in the test with SF-539 CNS, in the test with A549 NSCLC and with HS 578T breast was over 100 µM in each case.

In the case of `CCCN1C(=O)CCC2=C1CCc1c2ccc(Cl)c1Cl`, the TGI in the test with SK-MEL-5 melanoma is 60.4 µM; with BT-549 breast, over 100 µM; in the test on RXF 393 renal, 50.5 µM; in the test with UACC-257 melanoma, over 100 µM; in the test with SK-MEL-2 melanoma, 41.6 µM; in the test with DU-145 prostate, over 100 µM. Moreover, the TGI in the test with 786-0 renal was over 100 µM; in the test on OVCAR-5 ovarian, 82 µM; with IGROV1 ovarian, over 100 µM; in the test with SF-539 CNS it was 95.4 µM; in the test with A549 NSCLC it was over 100 µM; in the test with HS 578T breast, 22 µM.

For `NC1C/C(=N\O)c2c(I)sc(I)c21` (stereo unspecified), the TGI in the test on SK-MEL-5 melanoma is 28.4 µM; in the test on BT-549 breast, 29.9 µM; in the test on RXF 393 renal, 35.8 µM; in the test on UACC-257 melanoma, 31.8 µM; in the test on SK-MEL-2 melanoma, 35.2 µM; with DU-145 prostate, 31.4 µM. Further, the TGI with 786-0 renal is over 50.9 µM; with OVCAR-5 ovarian it was 31.4 µM; in the test on IGROV1 ovarian, 30.8 µM; in the test on SF-539 CNS it was 20.3 µM; with A549 NSCLC, 46.4 µM; with HS 578T breast, 48.9 µM.

`O=C(CN1CCN(C(=O)OCc2ccccc2)CCN(CC(=O)N2CCCCC2)CCN(C(=O)OCc2ccccc2)CC1)N1CCCCC1`: the TGI in the test with SK-MEL-5 melanoma is 19.2 µM; in the test on BT-549 breast it was over 50.5 µM; in the test on RXF 393 renal it was 39.1 µM; in the test with UACC-257 melanoma it was 9.75 µM; in the test on SK-MEL-2 melanoma it was 40.2 µM; in the test with DU-145 prostate it was over 54.8 µM. Also, the TGI in the test on 786-0 renal is over 45.9 µM; in the test on OVCAR-5 ovarian it was 48.8 µM; in the test with IGROV1 ovarian, 28.9 µM; with SF-539 CNS, 27.8 µM; with A549 NSCLC, over 53.5 µM; in the test on HS 578T breast, 35.2 µM.

In the case of `C=C1c2c(cc3c(c2O)c(=O)c2ccccc2n3C)OC1(C)C`, the TGI with SK-MEL-5 melanoma, in the test on DMS 114 small cell lung, with SK-MEL-2 melanoma, in the test with IGROV1 ovarian, in the test with SF-539 CNS and in the test with DLD-1 colon was over 100 µM in each case.
